Patent US20050267156A1, “Broadspectrum 2-amino-benzothiazole sulfonamide hiv protease inhibitors” (Tibotec Pharmaceuticals Ltd., priority 2002, published 2005)
Counter-ions that a name gives are not always drawn. Like-named read-outs stand apart in the source and are kept apart here.

Key:
HIV-1 strain LAI = assay: Cellular anti-HIV assay (MT4/MTT), wild type; format: cell-based; conditions: MT4 cells, read-out: WT (pEC50) (converted)
Method: The compounds of the present invention were examined for anti-viral activity in a cellular assay. […] The cellular assay was performed according to the following procedure. HIV- or mock-infected MT4 cells were incubated for five days in the presence of various concentrations of the inhibitor. […] Cell viability is measured by measuring the concentration of MTT, a yellow, water soluble tetrazolium dye that is converted to a purple, water insoluble formazan in the mitochondria of living cells only. Upon solubilization of the resulting formazan crystals with isopropanol, the absorbance of the solution is monitored at 540 nm. The values correlate directly to the number of living cells remaining in the culture at the completion of the five-day incubation. The inhibitory activity of the compound was monitored on the virus-infected cells and was expressed as EC50 and EC90. These values represent the amount of the compound required to protect 50% and 90%, respectively, of the cells from the cytopathogenic effect of the virus. […] The selectivity index (SI) (ratio CC50/EC50) is an indication of the selectivity of the anti-HIV activity of the inhibitor. Wherever results are reported as e.g. pEC50 or pCC50 values, the result is expressed as the negative logarithm of the result expressed as EC50 or CC50 respectively.

mutant HIV strain A = assay: microbe, parasite or virus in culture; format: cell-based; conditions: for fold resistance Strain A: FR=EC50 (mutant strain)/EC50 (HIV-1 strain LAI); for EC50: Human immunodeficiency virus 1, MT4, read-out: pEC50 Strain A, mutant HIV strain A, MT4 cells (converted)
Method: (§1) HIV- or mock-infected MT4 cells were incubated for five days in the presence of various concentrations of the inhibitor. […] Cell viability is measured by measuring the concentration of MTT, a yellow, water soluble tetrazolium dye that is converted to a purple, water insoluble formazan in the mitochondria of living cells only. Upon solubilization of the resulting formazan crystals with isopropanol, the absorbance of the solution is monitored at 540 nm. The values correlate directly to the number of living cells remaining in the culture at the completion of the five-day incubation. The inhibitory activity of the compound was monitored on the virus-infected cells and was expressed as EC50 and EC90. These values represent the amount of the compound required to protect 50% and 90%, respectively, of the cells from the cytopathogenic effect of the virus. […] The selectivity index (SI) (ratio CC50/EC50) is an indication of the selectivity of the anti-HIV activity of the inhibitor. Wherever results are reported as e.g. pEC50 or pCC50 values, the result is expressed as the negative logarithm of the result expressed as EC50 or CC50 respectively.

mutant HIV strain B = assay: microbe, parasite or virus in culture; format: cell-based; conditions: for fold resistance Strain B: FR=EC50 (mutant strain)/EC50 (HIV-1 strain LAI); for EC50: Human immunodeficiency virus 1, MT4, read-out: pEC50 Strain B, mutant HIV strain B, MT4 cells (converted)
Method: as §1

mutant HIV strain C = assay: microbe, parasite or virus in culture; format: cell-based; conditions: for fold resistance Strain C: FR=EC50 (mutant strain)/EC50 (HIV-1 strain LAI); for EC50: Human immunodeficiency virus 1, MT4, read-out: pEC50 Strain C, mutant HIV strain C, MT4 cells (converted)
Method: as §1

mutant HIV strain D = assay: microbe, parasite or virus in culture; format: cell-based; conditions: for fold resistance Strain D: FR=EC50 (mutant strain)/EC50 (HIV-1 strain LAI); for EC50: Human immunodeficiency virus 1, MT4, read-out: pEC50 Strain D, mutant HIV strain D, MT4 cells (converted)
Method: as §1

mutant HIV strain E = assay: microbe, parasite or virus in culture; format: cell-based; conditions: for fold resistance Strain E: FR=EC50 (mutant strain)/EC50 (HIV-1 strain LAI); for EC50: Human immunodeficiency virus 1, MT4, read-out: pEC50 Strain E, mutant HIV strain E, MT4 cells (converted)
Method: as §1

mutant HIV strain F = assay: microbe, parasite or virus in culture; format: cell-based; conditions: for fold resistance Strain F: FR=EC50 (mutant strain)/EC50 (HIV-1 strain LAI); for EC50: Human immunodeficiency virus 1, MT4, read-out: pEC50 Strain F, mutant HIV strain F, MT4 cells (converted)
Method: as §1

[1] = Toxicity on mock-infected cells (MTT); format: cell-based; conditions: human
Method: HIV- or mock-infected MT4 cells were incubated for five days in the presence of various concentrations of the inhibitor. At the end of the incubation period, the replicating virus in the control cultures has killed all HIV-infected cells in the absence of any inhibitor. Cell viability is measured by measuring the concentration of MTT, a yellow, water soluble tetrazolium dye that is converted to a purple, water insoluble formazan in the mitochondria of living cells only. Upon solubilization of the resulting formazan crystals with isopropanol, the absorbance of the solution is monitored at 540 nm. The values correlate directly to the number of living cells remaining in the culture at the completion of the five-day incubation. The inhibitory activity of the compound was monitored on the virus-infected cells and was expressed as EC50 and EC90. These values represent the amount of the compound required to protect 50% and 90%, respectively, of the cells from the cytopathogenic effect of the virus. […] The selectivity index (SI) (ratio CC50/EC50) is an indication of the selectivity of the anti-HIV activity of the inhibitor. Wherever results are reported as e.g. pEC50 or pCC50 values, the result is expressed as the negative logarithm of the result expressed as EC50 or CC50 respectively.

Pharmacokinetics in rats = format: in vivo, Whistar rats; conditions: Whistar, rat, blood, 10 mpk, read-out: Cmax
Method: The pharmacokinetic properties of some compounds of formula (I) were tested on rats and dogs. The compounds were evaluated in Whistar rats, source Iffa Credo, weighing approximately 350 g. Before dosing the animals were fasted overnight (approximately 12 h fasting period). The compounds were dissolved in DMSO or PEG 400. The results represented in the table concern the results from the oral or intra-peritoneal dosing of the compounds. Blood was sampled at 30 min, 1 h, 2 h, 3 h, no pre-dose sample was taken. The amount of the compound in the biological sample was determined using LC-MS. In the table below “or” means oral dosing, “ip” means intraperitoneal dosing, “mpk” means mg per kilogram.

[2] = Human immunodeficiency virus 1, wild type HIV-1 strain LAI
[3] = ip, ip, DMSO, results normalized to 10 mpk
[4] = po, or, PEG400, results normalized to 10 mpk

SMILES | EC50 (HIV-1 strain LAI; [2]) | fold resistance Strain A (mutant HIV strain A) | EC50 (mutant HIV strain A) | fold resistance Strain B (mutant HIV strain B) | EC50 (mutant HIV strain B) | fold resistance Strain C (mutant HIV strain C) | EC50 (mutant HIV strain C) | fold resistance Strain D (mutant HIV strain D) | EC50 (mutant HIV strain D) | fold resistance Strain E (mutant HIV strain E) | EC50 (mutant HIV strain E) | fold resistance Strain F (mutant HIV strain F) | EC50 (mutant HIV strain F) | CC50 at 5 days [1] | Cmax (Pharmacokinetics in rats; [3]) | Cmax (Pharmacokinetics in rats; [4]) | Cmax (Pharmacokinetics in rats; po, or, DMSO, results normalized to 10 mpk) | EC50 (HIV-1 strain LAI; Human immunodeficiency virus 1, MT4, wild type HIV-1 strain LAI)
Cc1c(N)cccc1C(=O)N[C@@H](Cc1ccccc1)[C@H](O)CN(CC(C)C)S(=O)(=O)c1ccc2nc(N)sc2c1 [Compound 10, 3-amino-N-{(1S,2R)-3-[(2-amino-benzothiazole-6-sulfonyl)-isobutyl-amino]-1-benzyl-2-hydroxypropyl}-2-methyl-benzamide] | 9.12 nM | 9.3 | 85.1 nM | 1.0 | 9.33 nM | 1.7 | 15.8 nM | 2.5 | 22.9 nM | 1.4 | 13.2 nM | 9.5 | 87.1 nM | 72400 nM |  |  |  | 
CNc1nc2ccc(S(=O)(=O)N(CC(C)C)C[C@@H](O)[C@H](Cc3ccccc3)NC(=O)COc3c(C)cccc3C)cc2s1 [Compound 15, N-{(1S,2R)-1-benzyl-2-hydroxy-3-[isobutyl-(2-methylamino-benzothiazole-6-sulfonyl)-amino]-propyl}-2-(2,6-dimethyl-phenoxy)-acetamide] | 11.2 nM | 4.6 | 51.3 nM | 2.6 | 28.8 nM | 3.5 | 39.8 nM | 4.5 | 50.1 nM | 3.2 | 36.3 nM | 20.4 | 229 nM | 91200 nM | 86 ng/mL | 10 ng/mL |  | 
CNc1nc2ccc(S(=O)(=O)N(CC(C)C)C[C@@H](O)[C@H](Cc3ccccc3)NC(=O)c3ccc(Br)cc3C)cc2s1 [Compound 27, N-{(1S,2R)-1-benzyl-2-hydroxy-3-[isobutyl-(2-methylamino-benzothiazole-6-sulfonyl)-amino]-propyl}-4-bromo-2-methyl-benzamide] | 19.1 nM | 8.3 | 158 nM | 1.1 | 20.4 nM | 263.0 | 5010 nM | 4.5 | 85.1 nM | 1.6 | 30.9 nM | 33.9 | 646 nM | > 100000 nM |  |  |  | 
Cc1cc(CN)cc(C)c1OCC(=O)N[C@@H](Cc1ccccc1)[C@H](O)CN(CC(C)C)S(=O)(=O)c1ccc2nc(N)sc2c1 [Compound 17, N-{(1S,2R)-3-[(2-amino-benzothiazole-6-sulfonyl)-isobutyl-amino]-1-benzyl-2-hydroxypropyl}-2-(4-aminomethyl-2,6-dimethyl-phenoxy)-acetamide] | 7.08 nM | 4.5 | 31.6 nM | 0.9 | 6.61 nM | 1.7 | 12.3 nM | 3.3 | 23.4 nM | 1.1 | 7.59 nM | 22.4 | 158 nM | 63100 nM |  |  |  | 
Cc1cccc(C)c1OCC(=O)N[C@@H](Cc1ccccc1)[C@H](O)CN(CC(C)C)S(=O)(=O)c1ccc2nc(N)sc2c1 [Compound 8, N-{(1S,2R)-3-[(2-amino-benzothiazole-6-sulfonyl)-isobutyl-amino]-1-benzyl-2-hydroxypropyl}-2-(2,6-dimethyl-phenoxy)-acetamide] | 6.61 nM | 4.8 | 31.6 nM | 2.0 | 13.5 nM | 3.9 | 25.7 nM | 5.1 | 33.9 nM | 4.2 | 27.5 nM | 21.4 | 141 nM | > 10000 nM |  |  |  | 
CC(C)CN(C[C@@H](O)[C@H](Cc1ccccc1)NC(=O)OCc1cncs1)S(=O)(=O)c1ccc2nc(N)sc2c1 [Compound 3, {(1S,2R)-3-[(2-amino-benzothiazole-6-sulfonyl)-isobutyl-amino]-1-benzyl-2-hydroxypropyl}-carbamic acid thiazol-5-ylmethyl ester] | 4.57 nM | 6.6 | 30.2 nM | 1.9 | 8.91 nM | 3.4 | 15.5 nM | 7.9 | 36.3 nM | 4.8 | 21.9 nM | 11.7 | 53.7 nM | 74100 nM |  |  |  | 
CNc1nc2ccc(S(=O)(=O)N(CC(C)C)C[C@@H](O)[C@H](Cc3ccccc3)NC(=O)OCc3cnco3)cc2s1 [Compound 28, {(1S,2R)-1-benzyl-2-hydroxy-3-[isobutyl-(2-methylamino-benzothiazole-6-sulfonyl)-amino]-propyl}-carbamic acid oxazol-5-ylmethyl ester] | 2.51 nM | 7.8 | 19.5 nM | 2.2 | 5.62 nM | 2.5 | 6.17 nM | 14.8 | 37.2 nM | 2.8 | 7.08 nM | 30.9 | 77.6 nM |  | 1000 ng/mL | 430 ng/mL | 540 ng/mL | 
CNc1nc2ccc(S(=O)(=O)N(CC(C)C)C[C@@H](O)[C@H](Cc3ccccc3)NC(=O)c3cccc(N)c3C)cc2s1 [Compound 20, 3-amino-N-{(1S,2R)-1-benzyl-2-hydroxy-3-[isobutyl-(2-methylamino-benzothiazole-6-sulfonyl)-amino]-propyl}-2-methyl-benzamide trifluoroacetate] |  |  | 316 nM |  | 24.5 nM |  | 39.8 nM |  | 41.7 nM |  | 25.7 nM |  | 759 nM | > 100000 nM |  |  |  | 4.79 nM
